Test results: patent publication US9131690B2, “Macrocyclic picolinamides as fungicides” (Dow AgroSciences LLC, priority 2012, dated 2015)
Where two headings read alike, the source gives them in different places.

Assays:
[1] = test system: Mycosphaerella graminicola; Anamorph: Septoria tritici; experiment: Fungicidal activity: Leaf Blotch of Wheat (SEPTTR), wheat plants variety Yuma; format: in vivo; details: Zymoseptoria tritici
Procedure: Evaluation of Fungicidal Activity: Leaf Blotch of Wheat (Mycosphaerella graminicola; Anamorph: Septoria tritici; Bayer Code […]) Wheat plants (variety Yuma) were grown from seed in a greenhouse in 50% mineral soil/50% soil-less Metro mix until the first leaf was fully emerged, with 7-10 seedlings per pot. These plants were inoculated with an aqueous spore suspension of Septoria tritici either prior to or after fungicide treatments. After inoculation the plants were kept in 100% relative humidity (one day in a dark dew chamber followed by two to three days in a lighted dew chamber) to permit spores to germinate and infect the leaf. The plants were then transferred to a greenhouse at 20° C. for disease to develop.

[2] = test system: Puccinia triticina. Synonym: Puccinia recondite f. sp. tritici; experiment: Fungicidal activity: Wheat Brown Rust (PUCCRT), wheat plants variety Yuma; format: in vivo; set-up: key to PUCCRT 3DC Disease Control: A: 50-100; B: More than 0-Less than 50; C: Not Tested; D: No activity noticed in this bioassay; details: for pest or weed control at 100 ppm: Puccinia triticina; for PUCCRT 3DC Disease Control: 100 ppm
Procedure: Evaluation of Fungicidal Activity: Wheat Brown Rust (Puccinia triticina. Synonym: Puccinia recondite f. sp. tritici; Bayer Code PUCCRT) Wheat plants (variety Yuma) were grown from seed in a greenhouse in 50% mineral soil/50% soil-less Metro mix until the first leaf was fully emerged, with 7-10 seedlings per pot. These plants were inoculated with an aqueous spore suspension of Puccinia recondite f. sp. tritici either prior to or after fungicide treatments. After inoculation the plants were kept in 100% relative humidity overnight to permit spores to germinate and infect the leaf. The plants were then transferred to a greenhouse set at 24 C for disease to develop.

[3] = 24 h, 1 Day Protectant, read-out: SEPTTR 1DP Disease Control
[4] = 72 h, 3 Day Curative, read-out: SEPTTR 3DC Disease Control
[5] = 24 h, 1 Day Protectant, read-out: PUCCRT 1DP Disease Control
[6] = 72 h, 3 Day Curative, read-out: PUCCRT 3DC Disease Control

Structure (SMILES)	pest or weed control at 100 ppm [1, 3]	pest or weed control at 100 ppm [1, 4]	pest or weed control at 100 ppm [2, 5]	pest or weed control at 100 ppm [2, 6]	melting point	PUCCRT 3DC Disease Control ([2]; 3 Day Curative)
COc1ccnc(C(=O)N[C@H]2COC(=O)[C@H](Cc3ccc(Cl)cc3)[C@@H](OC(=O)C(C)C)[C@H](C)OC2=O)c1O [Compound 9]	50 to 100%	0 to 50%	50 to 100%	50 to 100%	192 to 194 °C	–
COc1ccnc(C(=O)N[C@H]2COC(=O)[C@H](CCOC(=O)c3ccc(C(F)(F)F)cc3)[C@@H](OC(=O)C(C)C)[C@H](C)OC2=O)c1OC(C)=O [Compound 68]	0 to 50%	0 to 50%	0 to 50%	0 to 50%	199 to 200 °C	–
COc1ccnc(C(=O)N[C@H]2COC(=O)[C@H](Cc3cccnc3)[C@@H](OC(=O)C(C)C)[C@H](C)OC2=O)c1OC(C)=O [Compound 70]	0 to 50%	0 to 50%	50 to 100%	50 to 100%	151 to 160 °C	–
COc1ccnc(C(=O)N[C@H]2COC(=O)[C@H](CCOC(=O)C3CC3)[C@@H](OC(=O)C(C)C)[C@H](C)OC2=O)c1O [Compound 38]	50 to 100%	0 to 50%	50 to 100%	–	157 to 159 °C	D
CCCC/C=C/C[C@H]1C(=O)OC[C@H](NC(=O)c2nccc(OC)c2O)C(=O)O[C@@H](C)[C@@H]1OC(=O)C(C)C [Compound 18]	50 to 100%	0 to 50%	50 to 100%	–	146 to 148 °C	D
COc1ccnc(C(=O)N[C@H]2COC(=O)[C@H](CC(=O)OC(C)(C)C)[C@@H](OC(=O)C(C)C)[C@H](C)OC2=O)c1O [Compound 47, (3S,6S,7R,8R)-8-(2-tert-butoxy-2-oxoethyl)-3-(3-hydroxy-4-methoxypicolinamido)-6-methyl-4,9-dioxo-1,5-dioxonan-7-yl isobutyrate]	50 to 100%	50 to 100%	50 to 100%	50 to 100%	192 to 194 °C	–
COc1ccnc(C(=O)N[C@H]2COC(=O)[C@H](CCOC(=O)c3c(F)c(F)c(F)c(F)c3F)[C@@H](OC(=O)C(C)C)[C@H](C)OC2=O)c1O [Compound 43]	50 to 100%	0 to 50%	50 to 100%	0 to 50%	167 to 168 °C	–
COc1ccnc(C(=O)N[C@H]2COC(=O)[C@H](CCn3cc(-c4cccc(Cl)c4)nn3)[C@@H](OC(=O)C(C)C)[C@H](C)OC2=O)c1O [Compound 54, (3S,6S,7R,8R)-8-(2-(4-(3-chlorophenyl)-1H-1,2,3-triazol-1-yl)ethyl)-3-(3-hydroxy-4 methoxypicolinamido)-6-methyl-4,9-dioxo-1,5-dioxonan-7-yl isobutyrate]	50 to 100%	0 to 50%	50 to 100%	–	222 to 224 °C	D
COc1ccnc(C(=O)N[C@H]2COC(=O)[C@H](CC3CCCCC3)[C@@H](OC(=O)C(C)C)[C@H](C)OC2=O)c1OCOC(=O)C(C)C [Compound 27]	0 to 50%	0 to 50%	0 to 50%	0 to 50%	117 to 119 °C	–
CCOCC[C@H]1C(=O)OC[C@H](NC(=O)c2nccc(OC)c2O)C(=O)O[C@@H](C)[C@@H]1OC(=O)C(C)C [Compound 45]	0 to 50%	0 to 50%	50 to 100%	50 to 100%	134 to 136 °C	–
COc1ccnc(C(=O)N[C@H]2COC(=O)[C@H](CC(=O)Oc3ccccc3)[C@@H](OC(=O)C(C)C)[C@H](C)OC2=O)c1O [Compound 48]	50 to 100%	0 to 50%	50 to 100%	–	176 to 178 °C	D
COc1ccnc(C(=O)N[C@H]2COC(=O)[C@H](CCOCc3ccccc3)[C@@H](OC(=O)C(C)C)[C@H](C)OC2=O)c1O [Compound 60, (3S,6S,7R,8R)-8-(2-(benzyloxy)ethyl)-3-(3-hydroxy-4-methoxypicolinamido)-6-methyl-4,9-dioxo-1,5-dioxonan-7-yl isobutyrate]	50 to 100%	0 to 50%	50 to 100%	50 to 100%	139 to 140 °C	–
COc1ccnc(C(=O)N[C@H]2COC(=O)[C@H](Cc3ccc(Cl)nc3)[C@@H](OC(=O)C(C)C)[C@H](C)OC2=O)c1O [Compound 7]	0 to 50%	0 to 50%	50 to 100%	50 to 100%	148 to 152 °C	–
CCCCCCC[C@H]1C(=O)OC[C@H](NC(=O)c2nccc(OC)c2O)C(=O)O[C@@H](C)[C@@H]1OC(=O)C(C)C [Compound 63, (3S,6S,7R,8R)-8-heptyl-3-(3-hydroxy-4-methoxypicolinamido)-6-methyl-4,9-dioxo-1,5-dioxonan-7-yl isobutyrate]	50 to 100%	0 to 50%	50 to 100%	–	131 to 134 °C	D
COc1ccnc(C(=O)N[C@H]2COC(=O)[C@H](CCOC(=O)C3CC3)[C@@H](OC(=O)C(C)C)[C@H](C)OC2=O)c1OCOC(=O)C(C)C [Compound 26]	0 to 50%	0 to 50%	50 to 100%	50 to 100%	68 to 69 °C	–
COc1ccnc(C(=O)N[C@H]2COC(=O)[C@H](Cc3ccc(F)cc3F)[C@@H](OC(=O)C(C)C)[C@H](C)OC2=O)c1O [Compound 10]	50 to 100%	0 to 50%	50 to 100%	50 to 100%	184 to 185 °C	–
COc1ccnc(C(=O)N[C@H]2COC(=O)[C@H](Cc3ccncc3)[C@@H](OC(=O)C(C)C)[C@H](C)OC2=O)c1O [Compound 5]	50 to 100%	50 to 100%	50 to 100%	50 to 100%	151 to 156 °C	–
COc1ccnc(C(=O)N[C@H]2COC(=O)[C@H](CCn3cc(-c4ccccc4)nn3)[C@@H](OC(=O)C(C)C)[C@H](C)OC2=O)c1O [Compound 55]	50 to 100%	0 to 50%	50 to 100%	0 to 50%	222 to 224 °C	–
COc1ccnc(C(=O)N[C@H]2COC(=O)[C@H](Cc3ccc(C)cc3)[C@@H](OC(=O)C(C)C)[C@H](C)OC2=O)c1OCOC(=O)C(C)C [Compound 22]	0 to 50%	0 to 50%	50 to 100%	50 to 100%	131 to 133 °C	–
